# Experimental data from patent publication US11654102B2, “Cosmetic composition comprising vetiver root extract” (GIVAUDAN SA, priority 2018, dated 2023).
# Test: Solubility of zizanoic acid in water
# Format: physicochemical
# Conditions: in presence of the other substances present in the extract
compound,measurement,value
C=C1[C@H]2CC[C@H](C(=O)O)[C@@]23CC[C@H](C3)C1(C)C [zizanoic acid],solubility of zizanoic acid in water,improved
